Measurements: ChEMBL document CHEMBL4257489, “Recent updates in the discovery and development of novel antimalarial drug candidates” (Medchemcomm, 2018)

Assays:
[1] = Oral bioavailability in Sprague-Dawley rat at 10 mg/kg administered via gavage; type: ADME, organism-based; settings: in vivo
Plasmodium berghei [2] = experiment: Antimalarial activity against Plasmodium berghei infected in mouse by Thompson test; type: functional
[3] = Oral bioavailability in CD1 mouse at 10 mg/kg; type: ADME, organism-based; settings: in vivo
[4] = Half life in CD1 mouse at 2.5 mg/kg, iv; type: ADME, organism-based; settings: in vivo
Plasmodium berghei [5] = experiment: Antimalarial activity against Plasmodium berghei infected in po dosed mouse measured after 3 doses by 4 day peter's test; type: functional; settings: 96 h
Plasmodium berghei [6] = experiment: Antimalarial activity against Plasmodium berghei infected in mouse assessed as cure rate at 30 mg/kg, po relative to control; type: functional
Plasmodium berghei [7] = experiment: Antimalarial activity against GFP transfected Plasmodium berghei ANKA infected in NMRI mouse assessed as suppression of parasitemia at 100 mg/kg, po administered at 4, 24, 48, 72 hrs post infection measured at 96 hrs post infection by FACS analysis relative to control; type: functional
[8] = Oral bioavailability in C57BL/6 mouse at 100 mg/kg; type: ADME, organism-based; settings: in vivo
Plasmodium berghei [9] = experiment: Antimalarial activity against GFP-fused Plasmodium berghei ANKA infected in NMRI mouse assessed as mouse survival at 100 mg/kg, po administered at 4, 24, 48, 72 hrs post infection; type: functional
Plasmodium falciparum = experiment: Antimalarial activity against Plasmodium falciparum 3D7 0087/N9 in NODscid IL-2Rgammanull mouse engrafted with parasite infected human erythrocytes assessed as reduction in parasitemia administered via oral gavage starting from day 3 to day 6 post infection measured every 24 hrs during compound dosing by flow cytometric method; type: functional; settings: 3D7 0087/N9, po
[10] = Oral bioavailability in mouse at 15 mg/kg; type: ADME, organism-based; settings: in vivo
[11] = Oral bioavailability in beagle dog at 3 mg/kg; type: ADME, organism-based, Canis lupus familiaris; settings: in vivo
[12] = Oral bioavailability in Sprague-Dawley rat at 17 +/- 0.2 mg/kg administered via gavage as suspension; type: ADME, organism-based; settings: in vivo
[13] = Oral bioavailability in beagle dog at 30 mg/kg; type: ADME, organism-based, Canis lupus familiaris; settings: in vivo
[14] = Oral bioavailability in Sprague-Dawley rat at 20 +/- 0.2 mg/kg administered via gavage as solution; type: ADME, organism-based; settings: in vivo
Plasmodium berghei [15] = experiment: Antimalarial activity against GFP transfected Plasmodium berghei in ICR mouse engrafted with parasite infected erythrocytes assessed as reduction in parasitemia administered as po qd for 3 to 5 days post infection measured on day 3 to 30 by Giemsa staining-based microscopic method; type: functional
[16] = Oral bioavailability in rat; type: ADME, organism-based; settings: in vivo
hERG = experiment: Selectivity index, ratio of IC50 for human ERG to IC50 for Plasmodium falciparum NF54; type: toxicity; settings: read-out: Ratio IC50
[17] = tested on: acetylcholinesterase (AChE); experiment: Selectivity index, ratio of IC50 for human AchE to IC50 for Plasmodium falciparum NF54; type: toxicity; settings: read-out: Ratio IC50

Work on CC1(C)N=C(N)N=C(N)N1OCCCOc1cc(Cl)c(Cl)cc1Cl yielded a bioavailability [1] of under 1%.
In the case of COc1cc2[nH]c(C)c(-c3ccc(Oc4ccc(OC(F)(F)F)cc4)cc3)c(=O)c2cc1Cl, the ED50 (Plasmodium berghei [2]) is reported as 0.016 mg/kg.
Work on COc1ccc(NC(=O)N2CCCCN3[C@H](CN(C)C)[C@H](c4ccc(C#Cc5ccccc5)cc4)[C@@H]3C2)cc1 yielded a bioavailability [3] of 80% and a half-life [4] of 32 h.
FC1CCN(CCOc2ccc(C3CCC4(CC3)OOC3(OO4)C4CC5CC(C4)CC3C5)cc2)CC1 (centres undefined) gave an ED50 (Plasmodium berghei [5]) of 4 mg/kg and an Activity (Plasmodium berghei [6]) of 66%.
In the case of COc1ccc2c(c1)CC[C@@H]1[C@@H]2CC[C@]2(C)[C@H](NCc3cc4ccccc4cc3O)CC[C@@H]12, the Activity (Plasmodium berghei [7]) is reported as 99.8%, the bioavailability [8] is reported as under 5% and the Survival (Plasmodium berghei [9]) is reported as 27 days.
In the case of N#Cc1cc(NC(=O)[C@H]2c3ccccc3C(=O)N(CC(F)(F)F)[C@@H]2c2cccnc2)ccc1F [SJ-733], the ED50 (Plasmodium falciparum) is reported as under 5 mg/kg, the bioavailability [10] is reported as over 30% and the bioavailability [11] is reported as over 30%. It also gave a bioavailability [12] of over 30%, a bioavailability [13] of over 30% and a bioavailability [14] of over 30%. The ED50 (Plasmodium berghei [15]) was under 5 mg/kg.
Cc1nc(Nc2ncc(N3CCN(C)[C@H](C)C3)c(Nc3cc(C)n(C)n3)n2)cc(C2CC2)c1F [SUTIDIAZINE] showed a bioavailability [16] of 80%, a selectivity ratio (hERG) of over 1000 and a selectivity ratio [17] of over 1000.
